Experimental data from paper PMC13427755 (Nature Communications, 2026).
Like-named read-outs stand apart in the source and are kept apart here. Where a SMILES comes first, the peptide text is derived from it.

Tests used:
Assay type in all cases: in vivo, human
galectin-7 (GAL-7) = test: GAL7 ELISA in deep bronchial brushings (DBB); conditions: for GAL7 in DBB, Δ from baseline, median (IQR): Day 14 minus screening
Description: (§1) Bronchoscopists were instructed to obtain a total of 6 brushings from 3 of the basilar bronchial segments of the right lower lobe: the anterior basilar segment, the lateral basilar segment, and the posterior basilar segment. With the bronchoscope proximal to or within the orifice of the appropriate basilar segment, the brush sheath was to be passed out 5 cm beyond the subsegment orifice, and then the brush was fully extended an additional 1 cm for a total of 6 cm beyond the orifice of the subsegmental bronchus. At the desired depth, the sheath was to be gently pulled back and forward for 15 strokes to brush the small airways. The brushing process was repeated using any combination of the 3 basilar segments described above, at the discretion of the bronchoscopist, for a total of 6 six separate brush samples.
(§2) Protein isolation and preparation of DBB samples for ELISAs were performed as previously described[47] according to manufacturer’s instructions for COL1A1 (#ab210966, abcam), CXCL7 (#LS-F4967-1, LS Bio), GAL7 (#DY1339, R&D Systems), IL-11 (#DY218, R&D Systems), and TSLP (#DY1398, R&D Systems).
(§3) Descriptive statistics are reported as medians with interquartile ranges (IQR). The Hodges-Lehmann estimator was used for the median difference between groups (treatment minus placebo), with approximate 90% confidence intervals (asymmetric, exact level varied slightly with small n). Cliff’s delta was calculated as effect size using the formula δ = (2U / (n1 × n2)) − 1, with thresholds: |δ | <0.3 small effect, 0.3–0.5 medium effect, >0.5 large effect. […] No adjustment for multiplicity was performed, as these were pre-specified, hypothesis-driven exploratory analyses. All biomarker statistical analyses were conducted using GraphPad Prism Version v10.0.

[1] = tested on: surfactant protein D (SP-D); test: SP-D in plasma, MSD-ECL assay; conditions: for SP-D in plasma, Δ from baseline, median (IQR): Day 14 minus screening, N = 8; for SP-D in plasma, median difference vs placebo (Hodges-Lehmann): N = 8 vs pooled placebo N = 5
Procedure: Blood samples for biomarker assessments in PBMCs and platelet-rich plasma were collected prior to the initial dose and on day 14 following the last dose. Following optimization for detection of analytes in IPF matrices, meso-scale discovery electrochemiluminescence (MSD-ECL) assays were performed at BioAgylitix for SP-D (#K1519XR-2, MSD) in plasma and AKT/pAKT (#K15100D-1, MSD) in PBMCs according to manufacturer’s instructions.
as §3

[2] = tested on: collagen type 1 alpha chain 1 (COL1A1); test: COL1A1 ELISA in deep bronchial brushings (DBB); conditions: for COL1A1 in DBB, Δ from baseline, median (IQR): Day 14 minus screening
Description: as §1, §2, §3

participants with IPF = tested on: participants with IPF
Procedure: This was a Phase 1b, randomized, double-blind, placebo-controlled, dose escalation study conducted at 6 sites in the United States, United Kingdom, Germany, and Australia (ClinicalTrials.gov: NCT05954988).
The full study protocol and statistical analysis plan are provided as Supplementary Notes 1 and 2, respectively. The completed CONSORT checklist for reporting of this study is provided as Supplementary Note 3.
Randomization was performed by interactive response system. Participants, study staff, and sponsor personnel were blinded to treatment assignment throughout the study.
Safety and tolerability assessments were performed through treatment and follow-up and included evaluation of TEAEs, concomitant medications, physical examinations, vital signs, 12-lead ECGs, clinical laboratory assessments, spirometry, and cough symptoms using the validated LCQ[22] and a cough VAS. Spirometry was performed according to American Thoracic Society (ATS) / European Respiratory Society (ERS) Task Force guidelines[46] at all clinic visits, with assessments conducted both pre-and post-dose on study drug dosing days. Study staff monitored participants’ self-administration of the study drug (the morning dose) during on-site visits, and symptoms were monitored for at least 1h.
The primary endpoint was the incidence of TEAEs reported from Day 1 through follow-up. TEAEs were coded using MedDRA (Version 26.1) and graded using the National Cancer Institute Common Terminology for Adverse Events (CTCAE) Version 5. Safety analyses included all participants who received the study drug. […] Placebo participants in each cohort were pooled for safety and biomarker analyses. No secondary endpoints were specified.

[3] = tested on: thymic stromal lymphopoietin (TSLP); test: TSLP ELISA in deep bronchial brushings (DBB); conditions: for TSLP in DBB, Δ from baseline, median (IQR): Day 14 minus screening
Description: as §1, §2, §3

[4] = 5 mg/day, N = 8 vs pooled placebo N = 6, one-tailed Mann-Whitney p = 0.0709
[5] = 5 mg/day (2.5 mg BID) inhaled, 14 days, IPF, N = 9
[6] = 10 mg/day (5 mg BID) inhaled, 14 days, IPF, N = 9

CC(C)[C@H](NC(=O)[C@@H](NC(=O)[C@H](Cc1ccccc1)NC(=O)[C@@H](NC(=O)[C@@H](NC(=O)[C@@H](N)Cc1ccccc1)[C@@H](C)O)[C@@H](C)O)[C@@H](C)O)C(=O)N[C@H](C(=O)O)[C@@H](C)O [LTI-03] (H-FTTFTVT-OH; N-terminus and C-terminus assumed)
GAL7 in DBB, Δ from baseline, median (IQR) (galectin-7 (GAL-7); 5 mg/day, N = 8): 250.8575 pg/mg protein | GAL7 in DBB, median difference vs placebo (Hodges-Lehmann) (galectin-7 (GAL-7); [4]): −4730 pg/mg protein | GAL7 in DBB, Δ from baseline, median (IQR) (galectin-7 (GAL-7); 10 mg/day, N = 9): −726.395 pg/mg protein | GAL7 in DBB, median difference vs placebo (Hodges-Lehmann) (galectin-7 (GAL-7); 10 mg/day, N = 9 vs pooled placebo N = 6, one-tailed Mann-Whitney p = 0.0332): −6048 pg/mg protein | SP-D in plasma, Δ from baseline, median (IQR) ([1]; 5 mg/day): 3290 pg/mL | SP-D in plasma, median difference vs placebo (Hodges-Lehmann) ([1]; 5 mg/day, one-tailed Mann-Whitney p = 0.3108): 3428 pg/mL | SP-D in plasma, Δ from baseline, median (IQR) ([1]; 10 mg/day): -3264 pg/mL | SP-D in plasma, median difference vs placebo (Hodges-Lehmann) ([1]; 10 mg/day, one-tailed Mann-Whitney p = 0.1111): -8368 pg/mL | decrease of plasma SP-D compared to placebo ([1]; 10 mg/day, baseline to Day 14, p = 0.1111, not statistically significant): 5% | COL1A1 in DBB, Δ from baseline, median (IQR) ([2]; 5 mg/day, N = 8): 0.16 pg/mg protein | COL1A1 in DBB, median difference vs placebo (Hodges-Lehmann) [2, 4]: −3.486 pg/mg protein | COL1A1 in DBB, Δ from baseline, median (IQR) ([2]; 10 mg/day, N = 9): −11.9 pg/mg protein | COL1A1 in DBB, median difference vs placebo (Hodges-Lehmann) ([2]; 10 mg/day, N = 9 vs pooled placebo N = 6, one-tailed Mann-Whitney p = 0.0248): −20.95 pg/mg protein | TEAE: Back pain (participants with IPF; [5]): 1 (11.1) n (%) | TEAE: Body temperature increased (participants with IPF; [5]): 1 (11.1) n (%) | TEAE: COVID-19 (participants with IPF; [5]): 1 (11.1) n (%) | TEAE: Chest discomfort (participants with IPF; [5]): 1 (11.1) n (%) | TEAE: Dysgeusia (participants with IPF; [5]): 1 (11.1) n (%) | TEAE: Dyspnea, exertional (participants with IPF; [5]): 1 (11.1) n (%) | TEAE: Fatigue (participants with IPF; [5]): 1 (11.1) n (%) | TEAE: Hyperkaliemia (participants with IPF; [5]): 1 (11.1) n (%) | TEAE: Ophthalmic migraine (participants with IPF; [5]): 1 (11.1) n (%) | TEAE: Rhinorrhea (participants with IPF; [5]): 1 (11.1) n (%) | TEAEs Grade 2 (participants with IPF; 5 mg/day (2.5 mg BID) inhaled, 14 days, IPF, N = 9, CTCAE v5): 1 (11.1) n (%) | Serious TEAEs (participants with IPF; [6]): 1 (11.1) n (%) | TEAE related to study drug: Dry Mouth (participants with IPF; [6]): 1 (11.1) n (%) | TEAE related to study drug: Hypoesthesia oral (participants with IPF; [6]): 1 (11.1) n (%) | TEAE related to study drug: Palpitations (participants with IPF; [6]): 1 (11.1) n (%) | TEAE related to study drug: Throat Irritation (participants with IPF; [6]): 1 (11.1) n (%) | TEAE: COVID-19 (participants with IPF; [6]): 0 n (%) | TEAE: Cold sweat (participants with IPF; [6]): 1 (11.1) n (%) | TEAE: Dry mouth (participants with IPF; [6]): 1 (11.1) n (%) | TEAE: Hypoesthesia oral (participants with IPF; [6]): 1 (11.1) n (%) | TEAE: Nasopharyngitis (participants with IPF; [6]): 1 (11.1) n (%) | TEAE: Palpitations (participants with IPF; [6]): 1 (11.1) n (%) | TEAE: Productive cough (participants with IPF; [6]): 1 (11.1) n (%) | TEAE: Rhinorrhea (participants with IPF; [6]): 1 (11.1) n (%) | TEAE: Throat irritation (participants with IPF; [6]): 1 (11.1) n (%) | TEAE: Vertigo (participants with IPF; [6]): 1 (11.1) n (%) | TEAE: Post procedural fever (participants with IPF; 10 mg/day (5 mg BID) inhaled, 14 days, IPF, N = 9, serious, Grade 2, unrelated): 1 (11.1) n (%) | participants with TEAE cough (participants with IPF; in vivo): 44% | TEAE: COVID-19 (participants with IPF; pooled 5 and 10 mg/day inhaled, 14 days, IPF, N = 18): 1 (5.6) n (%) | TSLP in DBB, Δ from baseline, median (IQR) ([3]; 5 mg/day, N = 7): −2.106 pg/mg protein | TSLP in DBB, median difference vs placebo (Hodges-Lehmann) ([3]; 5 mg/day, N = 7 vs pooled placebo N = 6, one-tailed Mann-Whitney p = 0.0256): −19.66 pg/mg protein | TSLP in DBB, Δ from baseline, median (IQR) ([3]; 10 mg/day, N = 9): −2.09 pg/mg protein | TSLP in DBB, median difference vs placebo (Hodges-Lehmann) ([3]; 10 mg/day, N = 9 vs pooled placebo N = 6, one-tailed Mann-Whitney p = 0.0128): −19.07 pg/mg protein
